Structures can show the parent of a compound that is named as a salt. Where two headings read alike, the source gives them in different places. One block for each compound: values may come before it.
Tests used:
[1] = In Vitro Microsome Stability Assay (monkey); type: in vitro ADME; details: monkey, 30 min, NADPH
Method: (§1) Potassium phosphate (423 μL of a 0.1 M solution) was added to 8-strip deep well tubes followed by human, mouse, rat, or monkey microsomes (25 μL of a 20 mg/mL solution). The tubes were then placed on ice and the test article (2 μL of a 0.25 mM solution in DMSO) was added. The mixture was preincubated at 37° C. for 3 to 5 minutes (shaking at 150 rpm) then the reaction was initiated by adding 50 μL NADPH. An aliquot of samples (100 μL) were collected at 0 and 30 min and 200 μL of an acetonitrile mixture containing IS (compound 914) was added to quench the reaction. After centrifuging for 10 min at 4000 rpm, a mixed solution of the 20 μL of the supernatant (20 μL) plus 100 μL ACN/H2O (1:1) were injected for LC-MS/MS analysis. Liver microsome stability is assessed by the % remaining of compound at 30 min which is calculated using the following equation: [(AUCanalyteT=30/AUCIS)/(AUCanalyteT=0/AUCIS)]*100
(§2) For chemical structures that include one or more stereoisomers, but are illustrated without indicating stereochemistry, the assay data refers to a mixture of stereoisomers.

[2] = tested on: PD1 signal sequence plus 10 amino acids fused to Gaussia Luciferase (PD1-ss+10aa/Gaussia Luciferase); test: Dox Induced PD1-ss-Gluc Assay; type: cell-based; details: 24 hr, 293FRT/TO; read-out: 24 hr Dox Inducible PD1ssGluc 293FRT/TO: Mean IC50
Excerpt: FIp-In 293 T-REx™ cells were transfected with pcDNA™5/FRT/TO plasmid inserted with cDNA encoding Gaussia Luciferase fused to the 3′ end of cDNA encoding PD1 signal sequence plus 10 amino acids (N-[…]-C) (SEQ ID NO: 1). Transfected cells were selected for resistance to the selectable markers Hygromycin and Blasticidin to create a stable cell line that contained the PD1-ss+10aa/Gaussia Luciferase cDNA insert whose expression was regulated under the T-REx™ system. The day before assay, cells were trypsinized and plated in 384-well tissue culture plates. The next day, compound dilutions in DMSO/media containing doxycycline were added to the wells and incubated at 37° C., 5% CO2.
as §2

[3] = In Vitro Microsome Stability Assay (rat); type: in vitro ADME; details: rat, 30 min, NADPH
Method: as §1, §2

[4] = tested on: multiple myeloma cell line NCl-H929; test: H929 Cell Viability Assay; type: cell-based, human
Method: The human multiple myeloma cell line NCl-H929 was cultured in Advanced RPMI 1640 media (Gibco®) supplemented with 6% fetal bovine serum, 2 mM Glutamine, and 1× Penicillin/Streptomycin. On the day of assay, cells were resuspended in RPMI 1640 media supplemented with 10% fetal bovine serum, 2 mM Glutamine, and 1× Penicillin/Streptmycin and plated in 384-well tissue culture plates and treated with compound dilutions in DMSO/media. Plates were incubated at 37° C., 5% CO2 for 48 hours. After 48 hours, Celltiter-Glo® (Promega) was added to each well and luciferase signal was quantified using Tecan Infinite M1000 Pro for cell viability determination.
as §2

[5] = tested on: multiple myeloma cell line U266B1; test: U266 Cell Viability Assay; type: cell-based, human; details: 48 hr
Method: The human multiple myeloma cell line U266B1 was cultured in RPMI 1640 media supplemented with 10% fetal bovine serum, 2 mM Glutamine, and 1× Penicillin/Streptomycin. Cells were plated in 384-well tissue culture plates and treated with compound dilutions in DMSO/media. Plates were incubated at 37° C., 5% CO2 for 48 hours. After 48 hours, Celltiter-Glo® (Promega) was added to each well and luciferase signal was quantified using Tecan Infinite M1000 Pro for cell viability determination.
For chemical structures that include one or more stereoisomers, but are illustrated without indicating stereochemistry, the assay data refers to a mixture of stereoisomers

[6] = In Vitro Microsome Stability Assay (human); type: in vitro ADME; details: human, 30 min, NADPH
Method: as §1, §2

[7] = In Vitro Microsome Stability Assay (mouse); type: in vitro ADME; details: mouse, 30 min, NADPH
Method: as §1, §2

[8] = tested on: full length TNFα (amino acids 1-233) fused to Gaussia Luciferase; test: Dox Induced TNFα-FL-Gluc Assay; type: cell-based; details: 24 hr, 293FRT/TO; read-out: 24 hr Dox Inducible TNFaFLGluc 293FRT/TO: Mean IC50
Excerpt: FIp-In 293 T-REx™ cells were transfected with pcDNA™5/FRT/TO plasmid inserted with cDNA encoding Gaussia Luciferase fused to the 3′ end of cDNA encoding full length TNFα (amino acids 1-233). Transfected cells were selected for resistance to the selectable markers Hygromycin and Blasticidin to create a stable cell line that contained the TNFα-FL/Gaussia Luciferase cDNA insert whose expression was regulated under the T-REx™ system. The day before assay, cells were trypsinized and plated in 384-well tissue culture plates. The next day, compound dilutions in DMSO/media containing doxycycline were added to the wells and incubated at 37° C., 5% CO2.
as §2

[9] = 48 hr, H929, read-out: 48 hr H929 Viability Celltiter-Glo: Mean EC50
[10] = Homo sapiens, U-266, U266, read-out: 48 hr U266 Viability Celltiter-Glo: Mean EC50
[11] = Homo sapiens, NCI-H929, 48 h, H929, read-out: 48 hr H929 Viability Celltiter-Glo: Mean EC50

- Liver Microsome Stability-% Left after 30 min w/ NADPH (%) Monkey [1]: 0.44%
- IC50 [2]: 4750 nM
- Liver Microsome Stability-% Left after 30 min w/ NADPH (%) Rat [3]: 0.17%
- EC50 [4, 11]: 24.1 µM
- EC50 [5, 10]: > 25 µM
- Liver Microsome Stability-% Left after 30 min w/ NADPH (%) Human [6]: 0.53%
- Liver Microsome Stability-% Left after 30 min w/ NADPH (%) Mouse [7]: 0.12%
- IC50 [8]: > 25 µM
Compound: C=C1CN(S(=O)(=O)CC)CCCN(CC2CCCCC2)CCCN(S(=O)(=O)c2ccc(C)cc2)C1 [A6, 9-(cyclohexylmethyl)-1-(ethanesulfonyl)-5-(4-methylbenzenesulfonyl)-3-methylidene-1,5,9-triazacyclododecane]

- Liver Microsome Stability-% Left after 30 min w/ NADPH (%) Monkey [1]: 0.66%
- IC50 [2]: 1110 nM
- Liver Microsome Stability-% Left after 30 min w/ NADPH (%) Rat [3]: 0.14%
- EC50 [4, 11]: > 25 µM
- EC50 [5, 10]: > 25 µM
- Liver Microsome Stability-% Left after 30 min w/ NADPH (%) Human [6]: 0.09%
- Liver Microsome Stability-% Left after 30 min w/ NADPH (%) Mouse [7]: 0.34%
- IC50 [8]: > 25 µM
Compound: C=C1CN(S(=O)(=O)c2ccc(C)cc2)CCCN(CC2CCOCC2)CCCN(S(=O)(=O)c2ccc(N(C)C)cc2)C1 [A9, N,N-dimethyl-4-{[5-(4-methylbenzenesulfonyl)-3-methylidene-9-[(oxan-4-yl)methyl]-1,5,9-triazacyclododecan-1-yl]sulfonyl}aniline]

- Liver Microsome Stability-% Left after 30 min w/ NADPH (%) Monkey [1]: 0.14%
- IC50 [2]: 123 nM
- Liver Microsome Stability-% Left after 30 min w/ NADPH (%) Rat [3]: 8.85%
- EC50 [4, 11]: 2.86 µM
- EC50 [5, 10]: > 25 µM
- Liver Microsome Stability-% Left after 30 min w/ NADPH (%) Human [6]: 0.77%
- Liver Microsome Stability-% Left after 30 min w/ NADPH (%) Mouse [7]: 0.2%
- IC50 [8]: 4.69 µM
Compound: C=C1CN(S(=O)(=O)c2ccc(C)cc2)CCCN(CC2CCC(C)(C)CC2)CCCN(S(=O)(=O)c2ccc(N(C)C)cc2)C1 [A10, 4-((9-((4,4-dimethylcyclohexyl)methyl)-3-methylene-5-tosyl-1,5,9-triazacyclododecan-1-yl)sulfonyl)-N,N-dimethylaniline hydrochloride]

- Liver Microsome Stability-% Left after 30 min w/ NADPH (%) Monkey [1]: 0.22%
- IC50 [2]: 858 nM
- Liver Microsome Stability-% Left after 30 min w/ NADPH (%) Rat [3]: 0.07%
- EC50 [4, 11]: > 25 µM
- EC50 [5, 10]: > 25 µM
- Liver Microsome Stability-% Left after 30 min w/ NADPH (%) Human [6]: 0.11%
- Liver Microsome Stability-% Left after 30 min w/ NADPH (%) Mouse [7]: 0.1%
- IC50 [8]: > 25 µM
Compound: C=C1CN(S(=O)(=O)c2ccc(C)cc2)CCCN(C(=O)OCCC)CCCN(S(=O)(=O)c2ccc(N(C)C)cc2)C1 [A12, propyl 5-((4-(dimethylamino)phenyl)sulfonyl)-7-methylene-9-tosyl-1,5,9-triazacyclododecane-1-carboxylate]

- Liver Microsome Stability-% Left after 30 min w/ NADPH (%) Monkey [1]: 0.1%
- IC50 [2]: 25 nM
- Liver Microsome Stability-% Left after 30 min w/ NADPH (%) Rat [3]: 0.1%
- EC50 [4, 11]: 0.987 µM
- EC50 [5, 10]: > 25 µM
- Liver Microsome Stability-% Left after 30 min w/ NADPH (%) Human [6]: 0.65%
- Liver Microsome Stability-% Left after 30 min w/ NADPH (%) Mouse [7]: 0.04%
- IC50 [8]: 1.47 µM
Compound: C=C1CN(S(=O)(=O)c2ccc(N(C)C)cc2)CCCN(CC2CCCCC2)CCCN(S(=O)(=O)N2CCCCC2)C1 [A13, 4-{[9-(cyclohexylmethyl)-3-methylidene-5-(piperidine-1-sulfonyl)-1,5,9-triazacyclododecan-1-yl]sulfonyl}-N,N-dimethylaniline]

The next lines start with the compound.

Compound: C=C1CN(S(=O)(=O)c2ccc(C)cc2)CCCN(CC2CCCCC2)CCCN(S(=O)(=O)C2CCCCC2)C1 [A5]
- Liver Microsome Stability-% Left after 30 min w/ NADPH (%) Monkey [1]: 0.31%
- IC50 [2]: 651 nM
- Liver Microsome Stability-% Left after 30 min w/ NADPH (%) Rat [3]: 0.24%
- EC50 [4, 9]: 8.43 µM
- EC50 [5, 10]: > 25 µM
- Liver Microsome Stability-% Left after 30 min w/ NADPH (%) Human [6]: 0.24%
- Liver Microsome Stability-% Left after 30 min w/ NADPH (%) Mouse [7]: 0.27%
- IC50 [8]: > 25 µM

Compound: C=C1CN(S(=O)(=O)c2ccc(C)cc2)CCCN(CC2CCCCC2)CCCN(S(=O)(=O)C(C)C)C1 [A7, 9-(cyclohexylmethyl)-1-(4-methylbenzenesulfonyl)-3-methylidene-5-(propane-2-sulfonyl)-1,5,9-triazacyclododecane]
- Liver Microsome Stability-% Left after 30 min w/ NADPH (%) Monkey [1]: 0.99%
- IC50 [2]: 2310 nM
- Liver Microsome Stability-% Left after 30 min w/ NADPH (%) Rat [3]: 0.23%
- EC50 [4, 11]: 22.4 µM
- EC50 [5, 10]: > 25 µM
- Liver Microsome Stability-% Left after 30 min w/ NADPH (%) Human [6]: 0.29%
- Liver Microsome Stability-% Left after 30 min w/ NADPH (%) Mouse [7]: 0.17%
- IC50 [8]: > 25 µM

Compound: C=C1CN(S(=O)(=O)c2ccc(C)cc2)CCCN(CC2CCCCC2)CCCN(S(=O)(=O)C2CCCCC2)C1 [A8, 1-(cyclohexanesulfonyl)-9-(cyclohexylmethyl)-5-(4-methylbenzenesulfonyl)-3-methylidene-1,5,9-triazacyclododecane]
- Liver Microsome Stability-% Left after 30 min w/ NADPH (%) Monkey [1]: 0.19%
- IC50 [2]: 2680 nM
- Liver Microsome Stability-% Left after 30 min w/ NADPH (%) Rat [3]: 0.61%
- EC50 [4, 9]: > 25 µM
- EC50 ([5]; U266, read-out: 48 hr U266 Viability Celltiter-Glo: Mean EC50): > 25 µM
- Liver Microsome Stability-% Left after 30 min w/ NADPH (%) Human [6]: 0.09%
- Liver Microsome Stability-% Left after 30 min w/ NADPH (%) Mouse [7]: 0.17%
- IC50 [8]: > 25 µM

Compound: CN(C)c1ccc(S(=O)(=O)N2CCCN(CC3CCCCC3)CCCN(S(=O)(=O)N3CCC(O)CC3)CC3(CC3)C2)cc1 [A28, 1-{[9-(cyclohexylmethyl)-13-[4-(dimethylamino)benzenesulfonyl]-5,9,13-triazaspiro[2.11]tetradecan-5-yl]sulfonyl}piperidin-4-ol]
- Liver Microsome Stability-% Left after 30 min w/ NADPH (%) Monkey [1]: 0.06%
- IC50 [2]: 5250 nM
- Liver Microsome Stability-% Left after 30 min w/ NADPH (%) Rat [3]: 0.14%
- EC50 [4, 11]: 10.4 µM
- EC50 [5, 10]: > 25 µM
- Liver Microsome Stability-% Left after 30 min w/ NADPH (%) Mouse [7]: 0.06%
- IC50 [8]: > 25 µM

Compound: COc1ccc(F)cc1N1CCN(S(=O)(=O)N2CCCN(CC3CCCCC3)CCCN(S(=O)(=O)c3ccc(N(C)C)cc3)C[C@H](C)C2)CC1 [A176]
- EC50 ([4]; Homo sapiens, NCI-H929, 48 h, H929, Celltiter-Glo): 3.11 µM
- EC50 ([5]; Homo sapiens, U-266, U266, Celltiter-Glo): > 25 µM
